Read-outs that look alike come from different tables or passages of the source.
Legend:
MRPs [1] = experiment: Effect of MRP inhibitors on efflux of 14C-AIT-082 from brain after icv administration; type: in vivo, mice; details: icv co-administration with 14C-AIT-082
Method: To examine the role of P-gp and MRP, various substrates/inhibitors were co-administered with ^14C-AIT-082. […] In all experiments the control group of animals was given ^14C-AIT-082 in PBS. Additionally, in experiments in which probenecid or verapamil were used, a second control group was given ^14C-AIT-082 in PBS containing 370 mM NaOH and 370 mM HCl, pH 7.4, or 14C-AIT-082 in PBS with 4.2% ethanol, pH 7.4, respectively.
All data are presented as mean ±S.E. For comparisons of means from 2 groups an unpaired Student's t-test was used. […]

MRPs [2] = experiment: Effect of MRP inhibitors on efflux of 14C-AIT-082 from brain after ipc administration; type: in vivo, mice; details: ipc co-administration with 14C-AIT-082
Method: Mice were anesthetized and then immobilized in a stereotaxic apparatus with a mouse adaptor coupled to a microinjection unit (Kopf, Tujunga, Calif.). […] Back flux of injection fluid was collected and at various times after injection brains were removed. The amount of radioactivity in brain, back flux and injection mixture was measured. The amount of radioactivity in the brain was corrected for the back flux and the log of this corrected dpm was plotted against time. The t½ was calculated as described above.
As above, all experiments included a control group in which ^14C-AIT-082 was administered in PBS.

[3] = Intracerebroventricular (icv) efflux from brain; type: in vivo, mice; details: icv administration
Method: (§1) Male Swiss-Webster CFW mice were supplied by Charles River Laboratories (Hollister, Calif.) and all experiments were conducted according to the NIH Guide on Care and Use of Laboratory Animals. Mice were 2-3 months old at the time of use.
(§2) These experiments were conducted according to the method of Banks et al. (1997) with minor modifications. The skull was exposed and, with a guarded 25 g needle, a hole was made through the skull at 1 mm anterior posterior (AP) and 1 mm lateral left (LL), relative to Bregma, and 3.5 mm dorsal ventral (DV), with respect to the skull. A guarded 1 μL Hamilton syringe (25 g) was used to inject 1 μL of PBS containing ^14C-AIT-082 (˜4.5×10^4 dpm/μL), ^3H-sucrose (˜3×10^4 dpm/μL), or ^3H-quinidine (˜3×10^4 dpm/μL) icv into mice. After injection and upon withdrawing the needle, there was often back flux of fluid that was collected. At various times after injection the amount of radioactivity remaining in the brain was determined. The amount of radioactivity in the back flux and injection mixture was also determined. Radioactivity in brain was corrected for the back flux and the log of this corrected dpm was plotted against time. The t½, was the inverse of the slope of the line multiplied by 0.301 (Banks et al., 1997).
(§3) All data are presented as mean ±S.E. For comparisons of means from 2 groups an unpaired Student's t-test was used. For comparisons of means from 3 groups, ANOVA was performed coupled with Scheffe's post-hoc analysis.

[4] = Intraparenchymal (ipc) efflux from brain; type: in vivo, mice; details: ipc administration
Method: as §1
These experiments were conducted according the method of Banks et al. (1994) with minor modifications. Mice were anesthetized and then immobilized in a stereotaxic apparatus with a mouse adaptor coupled to a microinjection unit (Kopf, Tujunga, Calif.). A small hole was made in the skull with a Dremel drill (model 770; 2.4 mm drill bit, model 107) at −1 mm AP and 1 mm LL relative to Bregma. Using a guarded 0.5 μL Hamilton syringe (25 g), 0.1 μL PBS containing ^14C-AIT-082 ([…]) or ^3H-sucrose (˜5×10^4 dpm/μL) was injected ipc at […] with respect to the skull. Back flux of injection fluid was collected and at various times after injection brains were removed. The amount of radioactivity in brain, back flux and injection mixture was measured. The amount of radioactivity in the brain was corrected for the back flux and the log of this corrected dpm was plotted against time. The t½ was calculated as described above.
as §3

P-gp = biological target: T1, P-gp (Mus musculus, UniProt P21447); experiment: Effect of AIT-082 on efflux of 3H-quinidine (P-gp substrate) from brain after icv administration; type: in vivo, mice; details: quinidine is a P-gp substrate
T1 construct: from tissue; host or cells: brain of living mice (in vivo efflux after icv or ipc injection)
Method: as §2, §3

[5] = Taylor et al., 2000, cited from earlier work
[6] = Taylor et al., 2000, cited from earlier work; remark: listed apart in the source
[7] = passively transported compound, t½ significantly higher

T1 sequence (P21447 whole entry): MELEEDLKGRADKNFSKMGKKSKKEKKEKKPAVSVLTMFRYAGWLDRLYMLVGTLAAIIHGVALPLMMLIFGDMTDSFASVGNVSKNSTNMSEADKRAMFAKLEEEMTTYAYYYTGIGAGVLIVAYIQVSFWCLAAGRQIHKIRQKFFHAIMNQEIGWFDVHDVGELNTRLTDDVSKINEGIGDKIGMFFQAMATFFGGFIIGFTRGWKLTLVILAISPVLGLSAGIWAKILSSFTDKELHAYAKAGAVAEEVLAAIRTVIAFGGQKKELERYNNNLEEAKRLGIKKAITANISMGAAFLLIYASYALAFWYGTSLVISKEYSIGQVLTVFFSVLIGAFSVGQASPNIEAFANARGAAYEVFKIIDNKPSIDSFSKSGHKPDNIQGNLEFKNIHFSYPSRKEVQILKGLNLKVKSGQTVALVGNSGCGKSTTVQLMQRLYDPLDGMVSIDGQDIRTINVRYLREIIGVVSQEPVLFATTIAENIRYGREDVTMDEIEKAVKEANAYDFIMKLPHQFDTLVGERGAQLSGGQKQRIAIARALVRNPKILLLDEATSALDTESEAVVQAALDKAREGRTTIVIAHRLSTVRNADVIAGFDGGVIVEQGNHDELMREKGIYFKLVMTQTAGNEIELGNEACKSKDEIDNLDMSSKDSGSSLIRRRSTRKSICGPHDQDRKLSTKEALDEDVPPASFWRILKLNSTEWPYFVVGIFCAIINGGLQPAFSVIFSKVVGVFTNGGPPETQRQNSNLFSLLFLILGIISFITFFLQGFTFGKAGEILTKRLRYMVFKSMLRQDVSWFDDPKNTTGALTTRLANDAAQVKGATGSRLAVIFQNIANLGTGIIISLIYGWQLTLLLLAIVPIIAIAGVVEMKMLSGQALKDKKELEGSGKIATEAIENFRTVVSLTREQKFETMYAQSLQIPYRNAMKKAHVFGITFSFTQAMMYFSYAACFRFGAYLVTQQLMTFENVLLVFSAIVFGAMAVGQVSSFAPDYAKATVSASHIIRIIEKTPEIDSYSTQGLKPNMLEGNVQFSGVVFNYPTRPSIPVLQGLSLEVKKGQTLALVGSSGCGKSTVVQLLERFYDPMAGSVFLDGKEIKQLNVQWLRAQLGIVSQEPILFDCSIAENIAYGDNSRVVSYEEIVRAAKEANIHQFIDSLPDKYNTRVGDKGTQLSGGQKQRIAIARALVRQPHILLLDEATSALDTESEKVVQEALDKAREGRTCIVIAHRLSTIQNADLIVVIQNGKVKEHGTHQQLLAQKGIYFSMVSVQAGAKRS

CCCN(CCC)S(=O)(=O)c1ccc(C(=O)O)cc1 [probenecid]
effect on efflux of 14C-AIT-082 from brain (MRPs [1]): significantly inhibited
effect on efflux of 14C-AIT-082 from brain (MRPs [2]): significantly inhibited

O=C(CCn1cnc2c(=O)[nH]cnc21)Nc1ccc(C(=O)O)cc1 [AIT-082, N-4-carboxyphenyl-3-(6-oxohydropurin-9-yl)propanamide]
effect of excess unlabeled AIT-082 on efflux of 14C-AIT-082 from brain (saturability) [3]: inhibited
t½ of transport out of brain ([3]; mice, mean ±S.E.): 20 ± 1.0 min
effect of excess unlabeled AIT-082 on efflux of 14C-AIT-082 from brain (saturability) [4]: inhibited
t½ of transport out of brain ([4]; mice, mean ±S.E.): 35.0 ± 1.9 min
effect on efflux of 3H-quinidine from brain (P-gp): inhibited
effect of excess unlabeled AIT-082 on efflux of 14C-AIT-082 from brain [5]: inhibited
t½ of transport out of brain ([5]; after intracerebroventricular administration): approximately 20 minutes
mechanism of transport into brain [6]: non-saturable mechanism
amount detectable in cortical extracellular fluid ([6]; capillary depletion and microdialysis): low micromolar quantities

OC[C@H]1O[C@@](CO)(O[C@H]2O[C@H](CO)[C@@H](O)[C@H](O)[C@H]2O)[C@@H](O)[C@@H]1O [^3H-sucrose, sucrose, reference compound]
transport out of brain compared with 14C-AIT-082 [3, 7]: significantly slower
transport out of brain compared with 14C-AIT-082 [4, 7]: significantly slower
